Values quoted from earlier work, collected in US20070117788A1, “Combination of a dopamine D2-receptor agonist and tiotropium or a derivative therof for treating obstructive airways and other inflammatory diseases” (Boehringer Ingelheim Pharma GmbH & Co. KG, priority 2001, published 2007).

Experiments:
δ and ε protein kinase C = settings: with ethanol, neural cells in culture

Structure (SMILES) | anti-allergic effect (antigen-challenged pig) | rhinorrhea (antigen-challenged pig) | translocation of δ and ε protein kinase C (δ and ε protein kinase C)
CCCn1c(=O)c2c(C)nc(CC)n2c2nc(OC)ccc21 [Example D-22888] | strong anti-allergic affect | inhibit rhinorrhea | 
Br.CCCN1CCc2cc(O)cc3c2[C@H]1Cc1ccc(O)c(O)c1-3 [R(−)-2,10,11-trihydroxy-N-propyl-noraporphine hydrobromide] |  |  | acts synergistically with ethanol to cause translocation
